Test results published in the supplement of paper PMC10307832.

Columns and labels:
Test in all cases: relative viability (nuclei count vs DMSO), 5 days (fraction); higher = more cells survive
NCI-H1355 = tested on: NCI-H1355
In short: (§1)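 The day after seeding in 1536-well plates, lung cancer cell lines were treated by pin tool with a single drug, or with a fixed anchor-drug dose together with five library-drug doses (not always all listed) in √10 steps. After 5 days, a combined fix-and-stain solution (final 0.05% Triton X-100, 1% formaldehyde, 1 ug/ml Hoechst) was added. Nuclei counted on 4× images gave relative viability as treated counts over vehicle counts, reported as the median of duplicate plates.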

NCI-H2228 = tested on: NCI-H2228
In short: as §1

A-427 = tested on: A-427
In short: as §1

NCI-H596 = tested on: NCI-H596
In short: as §1

NCI-H3122 = tested on: NCI-H3122
In short: as §1

NCI-H1650 = tested on: NCI-H1650
In short: as §1

NCI-H1755 = tested on: NCI-H1755
In short: as §1

H3255 = tested on: H3255
In short: as §1

SW 1573 = tested on: SW 1573
In short: as §1

LK-2 = tested on: LK-2
In short: as §1

NCI-H2347 = tested on: NCI-H2347
In short: as §1

NCI-H1666 = tested on: NCI-H1666
In short: as §1

NCI-H441 = tested on: NCI-H441
In short: as §1

NCI-H520 = tested on: NCI-H520
In short: as §1

NCI-H2085 = tested on: NCI-H2085
In short: as §1

NCI-H1944 = tested on: NCI-H1944
In short: as §1

NCI-H358 = tested on: NCI-H358
In short: as §1

NCI-H838 = tested on: NCI-H838
In short: as §1

NCI-H322M = tested on: NCI-H322M
In short: as §1

NCI-H650 = tested on: NCI-H650
In short: as §1

EKVX = tested on: EKVX
In short: as §1

NCI-H460 = tested on: NCI-H460
In short: as §1

ChaGo-K-1 = tested on: ChaGo-K-1
In short: as §1

SMILES: O=C(O)CCCCC(CCSCc1ccccc1)SCc1ccccc1 (centres undefined) [CPI-613] + O=C(c1cc(Cc2n[nH]c(=O)c3ccccc23)ccc1F)N1CCN(C(=O)C2CC2)CC1 [Olaparib] (partner 8 µM)
- relative viability (NCI-H1355; first compound 5 µM): 0.728
- relative viability (NCI-H1355; first compound 15.81 µM): 0.706
- relative viability (NCI-H1355; first compound 50 µM): 0.714
- relative viability (NCI-H1355; first compound 158.11 µM): 0.376
- relative viability (NCI-H1355; first compound 500 µM): 0.0737
- relative viability (NCI-H2228; first compound 5 µM): 0.532
- relative viability (NCI-H2228; first compound 15.81 µM): 0.411
- relative viability (NCI-H2228; first compound 50 µM): 0.634
- relative viability (NCI-H2228; first compound 158.11 µM): 0.628
- relative viability (NCI-H2228; first compound 500 µM): 0.185
- relative viability (A-427; first compound 5 µM): 0.775
- relative viability (A-427; first compound 15.81 µM): 0.7
- relative viability (A-427; first compound 50 µM): 0.711
- relative viability (A-427; first compound 158.11 µM): 0.229
- relative viability (A-427; first compound 500 µM): 0.177
- relative viability (NCI-H596; first compound 5 µM): 0.723
- relative viability (NCI-H596; first compound 15.81 µM): 0.723
- relative viability (NCI-H596; first compound 50 µM): 0.633
- relative viability (NCI-H596; first compound 158.11 µM): 0.323
- relative viability (NCI-H596; first compound 500 µM): 0.0561
- relative viability (NCI-H3122; first compound 5 µM): 0.672
- relative viability (NCI-H3122; first compound 15.81 µM): 0.589
- relative viability (NCI-H3122; first compound 50 µM): 0.574
- relative viability (NCI-H3122; first compound 158.11 µM): 0.442
- relative viability (NCI-H3122; first compound 500 µM): 0.609
- relative viability (NCI-H1650; first compound 5 µM): 0.728
- relative viability (NCI-H1650; first compound 15.81 µM): 0.791
- relative viability (NCI-H1650; first compound 50 µM): 0.749
- relative viability (NCI-H1650; first compound 158.11 µM): 0.416
- relative viability (NCI-H1650; first compound 500 µM): 0.0224
- relative viability (NCI-H1755; first compound 5 µM): 0.91
- relative viability (NCI-H1755; first compound 15.81 µM): 0.894
- relative viability (NCI-H1755; first compound 50 µM): 0.954
- relative viability (NCI-H1755; first compound 158.11 µM): 0.751
- relative viability (NCI-H1755; first compound 500 µM): 0.805
- relative viability (H3255; first compound 5 µM): 0.539
- relative viability (H3255; first compound 15.81 µM): 0.587
- relative viability (H3255; first compound 50 µM): 0.557
- relative viability (H3255; first compound 158.11 µM): 0.527
- relative viability (H3255; first compound 500 µM): 0.517
- relative viability (SW 1573; first compound 5 µM): 0.442
- relative viability (SW 1573; first compound 15.81 µM): 0.395
- relative viability (SW 1573; first compound 50 µM): 0.406
- relative viability (SW 1573; first compound 158.11 µM): 0.135
- relative viability (SW 1573; first compound 500 µM): 0.071
- relative viability (LK-2; first compound 5 µM): 0.714
- relative viability (LK-2; first compound 15.81 µM): 0.702
- relative viability (LK-2; first compound 50 µM): 0.749
- relative viability (LK-2; first compound 158.11 µM): 0.796
- relative viability (LK-2; first compound 500 µM): 0.736
- relative viability (NCI-H2347; first compound 5 µM): 0.535
- relative viability (NCI-H2347; first compound 15.81 µM): 0.505
- relative viability (NCI-H2347; first compound 50 µM): 0.562
- relative viability (NCI-H2347; first compound 158.11 µM): 0.495
- relative viability (NCI-H2347; first compound 500 µM): 0.349
- relative viability (NCI-H1666; first compound 5 µM): 0.749
- relative viability (NCI-H1666; first compound 15.81 µM): 0.772
- relative viability (NCI-H1666; first compound 50 µM): 0.865
- relative viability (NCI-H1666; first compound 158.11 µM): 0.304
- relative viability (NCI-H1666; first compound 500 µM): 0.396
- relative viability (NCI-H441; first compound 5 µM): 0.456
- relative viability (NCI-H441; first compound 15.81 µM): 0.483
- relative viability (NCI-H441; first compound 50 µM): 0.596
- relative viability (NCI-H441; first compound 158.11 µM): 0.109
- relative viability (NCI-H441; first compound 500 µM): 0.0239
- relative viability (NCI-H520; first compound 5 µM): 0.323
- relative viability (NCI-H520; first compound 15.81 µM): 0.371
- relative viability (NCI-H520; first compound 50 µM): 0.329
- relative viability (NCI-H520; first compound 158.11 µM): 0.136
- relative viability (NCI-H520; first compound 500 µM): 0.113
- relative viability (NCI-H2085; first compound 5 µM): 0.745
- relative viability (NCI-H2085; first compound 15.81 µM): 0.712
- relative viability (NCI-H2085; first compound 50 µM): 0.725
- relative viability (NCI-H2085; first compound 158.11 µM): 0.362
- relative viability (NCI-H2085; first compound 500 µM): 0.209
- relative viability (NCI-H1944; first compound 5 µM): 0.404
- relative viability (NCI-H1944; first compound 15.81 µM): 0.401
- relative viability (NCI-H1944; first compound 50 µM): 0.491
- relative viability (NCI-H1944; first compound 158.11 µM): 0.288
- relative viability (NCI-H1944; first compound 500 µM): 0.383
- relative viability (NCI-H358; first compound 5 µM): 0.532
- relative viability (NCI-H358; first compound 15.81 µM): 0.518
- relative viability (NCI-H358; first compound 50 µM): 0.572
- relative viability (NCI-H358; first compound 158.11 µM): 0.126
- relative viability (NCI-H358; first compound 500 µM): 0.112
- relative viability (NCI-H838; first compound 5 µM): 0.79
- relative viability (NCI-H838; first compound 15.81 µM): 0.705
- relative viability (NCI-H838; first compound 50 µM): 0.721
- relative viability (NCI-H838; first compound 158.11 µM): 0.278
- relative viability (NCI-H838; first compound 500 µM): 0.115
- relative viability (NCI-H322M; first compound 5 µM): 0.74
- relative viability (NCI-H322M; first compound 15.81 µM): 0.769
- relative viability (NCI-H322M; first compound 50 µM): 0.761
- relative viability (NCI-H322M; first compound 158.11 µM): 0.594
- relative viability (NCI-H322M; first compound 500 µM): 0.106
- relative viability (NCI-H650; first compound 5 µM): 0.404
- relative viability (NCI-H650; first compound 15.81 µM): 0.393
- relative viability (NCI-H650; first compound 50 µM): 0.366
- relative viability (NCI-H650; first compound 158.11 µM): 0.339
- relative viability (NCI-H650; first compound 500 µM): 0.359
- relative viability (EKVX; first compound 5 µM): 0.756
- relative viability (EKVX; first compound 15.81 µM): 0.862
- relative viability (EKVX; first compound 50 µM): 0.856
- relative viability (EKVX; first compound 500 µM): 0.802
- relative viability (NCI-H460; first compound 5 µM): 0.37
- relative viability (NCI-H460; first compound 15.81 µM): 0.321
- relative viability (NCI-H460; first compound 50 µM): 0.373
- relative viability (NCI-H460; first compound 158.11 µM): 0.274
- relative viability (NCI-H460; first compound 500 µM): 0.361
- relative viability (ChaGo-K-1; first compound 5 µM): 0.4
- relative viability (ChaGo-K-1; first compound 15.81 µM): 0.411
- relative viability (ChaGo-K-1; first compound 50 µM): 0.412
- relative viability (ChaGo-K-1; first compound 158.11 µM): 0.319
- relative viability (ChaGo-K-1; first compound 500 µM): 0.251
